The conditions of series [1]: cited from earlier work.
Series [2] relates to P. falciparum 3D7 (chloroquine-sensitive). Description: In vitro P. falciparum growth inhibition. The conditions noted are these: Plasmodium falciparum; for EC50: 3D7, 72 h, read-out: EC50 Pf3D7; for inhibition at 5 µM: 3D7, read-out: inhibition of parasite growth. The series is classed as cell-based.
Series [3] concerns P. falciparum Dd2 (multidrug-resistant). Description: In vitro P. falciparum growth inhibition. In kind it is cell-based. As to conditions: Plasmodium falciparum, DD2, 72 h, read-out: EC50 PfDd2.
Series [4] in a line: Cytotoxicity, MTT reduction method, COS-7. The series is classed as cell-based. The conditions noted are these: monkey, COS-7 cells. In general terms: Tetrazolium assays rely on reduction of a dye to a coloured formazan, in cell work by metabolically active cells.
The nature of series [5]: Cytotoxicity, MTT reduction method, HepG2. The conditions noted are these: human, HepG2 cells. In kind it is cell-based.
A further series deals with PfCDPK1. As to conditions: read-out: KD PfCDPK1; cited from earlier work.

As for `CS(=O)(=O)c1ccc(-c2cnc(N)c(-c3ccc(C(F)(F)F)nc3)c2)cc1` [MMV390048], in series [1], the “solubility (in words)” value was “poor solubility”.

Usually EC50 stands for the concentration giving half of the maximal effect. Turning to `CCN(CC)CCCC(C)Nc1ccnc2cc(Cl)ccc12` (stereo not drawn) [Chloroquine, reference compound], the figures for the EC50 in series [2] and in series [3] were 0.009 µM and 0.057 µM, respectively.

By inhibition is commonly meant the percentage by which the read-out fell short of the control. In general, CC50 refers to the concentration giving 50% cytotoxicity. Lower therefore signals greater toxicity to the cells. As to `O=C1Nc2ccccc2C1=Cc1ccc[nH]1` [(3), 3-(1H-pyrrol-2-ylmethylidene)-1H-indol-2-one], the EC50 in series [2] came to 10.3 ± 1.3 µM; in series [3], 9.8 ± 1.1 µM. The inhibition at 5 µM in series [2] is more than 30%. Also, the results for the CC50 at 72 h in series [4] and in series [5] were 32.8 ± 10.8 µM and 13.5 ± 7.6 µM, respectively.

Take `COc1ccc(-c2c(C)nn3c(NCCN4CCOCC4)cc(C)nc23)cc1OC` [(6), 3-(3,4-dimethoxyphenyl)-2,5-dimethyl-N-(2-morpholin-4-ylethyl)pyrazolo[1,5-a]pyrimidin-7-amine]: in series [2], the EC50 worked out at 13.8 ± 3.8 µM and the inhibition at 5 µM is more than 30%. The EC50 in series [3] amounted to 17.9 ± 5.3 µM.

As a reminder, the Kd is the concentration at which binding is half-saturated. Turning to `Cc1cn(-c2cc(NC(=O)c3ccc(C)c(Nc4nccc(-c5cccnc5)n4)c3)cc(C(F)(F)F)c2)cn1` [Nilotinib], the Kd at PfCDPK1 was 0.79 µM.

The record behind these values is publication PMC9293725 (Computational and Structural Biotechnology Journal, 2022).
